From the supplement of paper PMC10307832

What was measured:
Assay in all cases: relative viability (nuclei count vs DMSO), 5 days (fraction); higher = more cells survive
NCI-H596 = system: NCI-H596
Summary of the method: (§1)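 Lung cancer cell lines, seeded in 1536-well plates, were treated the following day by pin tool with a single drug or with five library-drug doses (not always all listed) in √10 steps on top of a fixed anchor-drug dose. Cells were fixed and nuclei stained in one step after 5 days, and nuclei were counted. Relative viability is the nuclei count for treated wells divided by that for vehicle wells, reported as medians of duplicate plates.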

NCI-H520 = system: NCI-H520
Summary of the method: as §1

NCI-H650 = system: NCI-H650
Summary of the method: as §1

A-427 = system: A-427
Summary of the method: as §1

H3255 = system: H3255
Summary of the method: as §1

NCI-H2087 = system: NCI-H2087
Summary of the method: as §1

NCI-H1650 = system: NCI-H1650
Summary of the method: as §1

CAL-12T = system: CAL-12T
Summary of the method: as §1

NCI-H2023 = system: NCI-H2023
Summary of the method: as §1

LCLC-97TM1 = system: LCLC-97TM1
Summary of the method: as §1

BEN = system: BEN
Summary of the method: as §1

NCI-H1915 = system: NCI-H1915
Summary of the method: as §1

201T = system: 201T
Summary of the method: as §1

NCI-H441 = system: NCI-H441
Summary of the method: as §1

LC-2-ad = system: LC-2-ad
Summary of the method: as §1

NCI-H1944 = system: NCI-H1944
Summary of the method: as §1

NCI-H460 = system: NCI-H460
Summary of the method: as §1

NCI-H1651 = system: NCI-H1651
Summary of the method: as §1

PC-3 [JPC-3] = system: PC-3 [JPC-3]
Summary of the method: as §1

NCI-H661 = system: NCI-H661
Summary of the method: as §1

## COc1cc2nccc(Oc3ccc(NC(=O)Nc4cc(C)on4)c(Cl)c3)c2cc1OC [Tivozanib] + Nc1nc2[nH]cc(CCc3ccc(C(=O)N[C@@H](CCC(=O)O)C(=O)O)cc3)c2c(=O)[nH]1 [Pemetrexed] (partner 0.2 µM)
NCI-H596; first compound 0.005 µM
  relative viability: 0.492
NCI-H596; first compound 0.01581 µM
  relative viability: 0.502
NCI-H596; first compound 0.05 µM
  relative viability: 0.51
NCI-H596; first compound 0.5 µM
  relative viability: 0.508
NCI-H520; first compound 0.005 µM
  relative viability: 0.525
NCI-H520; first compound 0.01581 µM
  relative viability: 0.572
NCI-H520; first compound 0.05 µM
  relative viability: 0.552
NCI-H520; first compound 0.1581 µM
  relative viability: 0.579
NCI-H520; first compound 0.5 µM
  relative viability: 0.61
NCI-H650; first compound 0.005 µM
  relative viability: 0.892
NCI-H650; first compound 0.01581 µM
  relative viability: 0.98
NCI-H650; first compound 0.05 µM
  relative viability: 0.879
NCI-H650; first compound 0.1581 µM
  relative viability: 0.679
NCI-H650; first compound 0.5 µM
  relative viability: 0.734
A-427; first compound 0.005 µM
  relative viability: 0.973
A-427; first compound 0.01581 µM
  relative viability: 0.952
A-427; first compound 0.05 µM
  relative viability: 0.961
A-427; first compound 0.1581 µM
  relative viability: 0.926
A-427; first compound 0.5 µM
  relative viability: 0.979
H3255; first compound 0.005 µM
  relative viability: 0.545
H3255; first compound 0.01581 µM
  relative viability: 0.563
H3255; first compound 0.05 µM
  relative viability: 0.583
H3255; first compound 0.1581 µM
  relative viability: 0.55
H3255; first compound 0.5 µM
  relative viability: 0.547
NCI-H2087; first compound 0.005 µM
  relative viability: 0.654
NCI-H2087; first compound 0.01581 µM
  relative viability: 0.696
NCI-H2087; first compound 0.05 µM
  relative viability: 0.66
NCI-H2087; first compound 0.1581 µM
  relative viability: 0.7
NCI-H2087; first compound 0.5 µM
  relative viability: 0.653
NCI-H1650; first compound 0.005 µM
  relative viability: 0.362
NCI-H1650; first compound 0.01581 µM
  relative viability: 0.342
NCI-H1650; first compound 0.05 µM
  relative viability: 0.384
NCI-H1650; first compound 0.1581 µM
  relative viability: 0.309
NCI-H1650; first compound 0.5 µM
  relative viability: 0.354
CAL-12T; first compound 0.005 µM
  relative viability: 1.25
CAL-12T; first compound 0.01581 µM
  relative viability: 1.15
CAL-12T; first compound 0.05 µM
  relative viability: 1.13
CAL-12T; first compound 0.1581 µM
  relative viability: 1.13
CAL-12T; first compound 0.5 µM
  relative viability: 1.12
NCI-H2023; first compound 0.005 µM
  relative viability: 0.405
NCI-H2023; first compound 0.01581 µM
  relative viability: 0.216
NCI-H2023; first compound 0.05 µM
  relative viability: 0.255
NCI-H2023; first compound 0.1581 µM
  relative viability: 0.224
NCI-H2023; first compound 0.5 µM
  relative viability: 0.211
LCLC-97TM1; first compound 0.005 µM
  relative viability: 0.183
LCLC-97TM1; first compound 0.01581 µM
  relative viability: 0.178
LCLC-97TM1; first compound 0.05 µM
  relative viability: 0.157
LCLC-97TM1; first compound 0.1581 µM
  relative viability: 0.172
LCLC-97TM1; first compound 0.5 µM
  relative viability: 0.148
BEN; first compound 0.005 µM
  relative viability: 0.647
BEN; first compound 0.01581 µM
  relative viability: 0.858
BEN; first compound 0.05 µM
  relative viability: 0.834
BEN; first compound 0.1581 µM
  relative viability: 0.397
BEN; first compound 0.5 µM
  relative viability: 0.689
NCI-H1915; first compound 0.005 µM
  relative viability: 0.518
NCI-H1915; first compound 0.01581 µM
  relative viability: 0.467
NCI-H1915; first compound 0.05 µM
  relative viability: 0.504
NCI-H1915; first compound 0.1581 µM
  relative viability: 0.468
NCI-H1915; first compound 0.5 µM
  relative viability: 0.46
201T; first compound 0.005 µM
  relative viability: 0.314
201T; first compound 0.01581 µM
  relative viability: 0.319
201T; first compound 0.05 µM
  relative viability: 0.351
201T; first compound 0.1581 µM
  relative viability: 0.351
201T; first compound 0.5 µM
  relative viability: 0.367
NCI-H441; first compound 0.005 µM
  relative viability: 0.245
NCI-H441; first compound 0.01581 µM
  relative viability: 0.296
NCI-H441; first compound 0.05 µM
  relative viability: 0.246
NCI-H441; first compound 0.1581 µM
  relative viability: 0.249
NCI-H441; first compound 0.5 µM
  relative viability: 0.239
LC-2-ad; first compound 0.005 µM
  relative viability: 0.245
LC-2-ad; first compound 0.01581 µM
  relative viability: 0.289
LC-2-ad; first compound 0.05 µM
  relative viability: 0.274
LC-2-ad; first compound 0.1581 µM
  relative viability: 0.286
LC-2-ad; first compound 0.5 µM
  relative viability: 0.245
NCI-H1944; first compound 0.005 µM
  relative viability: 0.545
NCI-H1944; first compound 0.01581 µM
  relative viability: 0.568
NCI-H1944; first compound 0.05 µM
  relative viability: 0.652
NCI-H1944; first compound 0.1581 µM
  relative viability: 0.659
NCI-H1944; first compound 0.5 µM
  relative viability: 0.611
NCI-H460; first compound 0.005 µM
  relative viability: 0.0664
NCI-H460; first compound 0.01581 µM
  relative viability: 0.0619
NCI-H460; first compound 0.05 µM
  relative viability: 0.0637
NCI-H460; first compound 0.1581 µM
  relative viability: 0.063
NCI-H460; first compound 0.5 µM
  relative viability: 0.0689
NCI-H1651; first compound 0.005 µM
  relative viability: 0.54
NCI-H1651; first compound 0.01581 µM
  relative viability: 0.52
NCI-H1651; first compound 0.05 µM
  relative viability: 0.683
NCI-H1651; first compound 0.1581 µM
  relative viability: 0.421
NCI-H1651; first compound 0.5 µM
  relative viability: 0.574
PC-3 [JPC-3]; first compound 0.01581 µM
  relative viability: 1.09
PC-3 [JPC-3]; first compound 0.05 µM
  relative viability: 1.09
PC-3 [JPC-3]; first compound 0.1581 µM
  relative viability: 1.06
PC-3 [JPC-3]; first compound 0.5 µM
  relative viability: 0.936
NCI-H661; first compound 0.005 µM
  relative viability: 0.887
NCI-H661; first compound 0.01581 µM
  relative viability: 0.928
NCI-H661; first compound 0.05 µM
  relative viability: 0.922
NCI-H661; first compound 0.1581 µM
  relative viability: 0.909
NCI-H661; first compound 0.5 µM
  relative viability: 0.854
